Consider two molecules from patent US4753965A, “Method of treating multiple sclerosis with chalcone derivatives” (Merrell Dow Pharmaceuticals, Inc., priority 1987, dated 1988).

The subject of one experiment is HeLa cells. Description: Growth inhibition of HeLa cells. In kind it is cell-based. Conditions: Homo sapiens, 72 hours. On the procedure:
The compounds of structure 1 inhibit the polymerization of tubulin, and thus the formation of microtubules, that ubiquitous substance of eukaryotic cells which serves a variety of functions, most importantly, to separate the duplicated sets of chromosomes during cell mitosis.
For growth inhibition studies, exponentially growing HeLa cells
were incubated at a density of 1 × 10^5 cells/35 mm dish with
number of dilutions of the test compound in the medium. The
plates were incubated at 37° C. in a CO2 incubation. At the
of 72 hours the cells were collected by trypinization and
counted and the IC50 (.upsilon.g/ml) was determined.

Experiment [1] has as its system Experimental Allergic Encephalomyelitis (EAE). Description: Experimental Allergic Encephalomyelitis (EAE) in rats. In kind it is in vivo, Lewis strain rats. The protocol: Effect of α-methyl-4-dimethylamino-2',5'-dimethoxychalcone on Experimental Allergic Encephalomyelitis (EAE) in Rats
EAE was induced in rats as described by Rosenthal and Nagra, Proc. Soc.
Lewis strain rats ranging in weight
from 100-200 g were sensitized with encephalitogenic emulsion consisting
of homogenized spinal cord in complete Freund's adjuvant. The test
compound and hydrocortisone (HC) were administered in
polyvinylpyrrolidone vehicle. The test compound was administered i.p.
once daily from day 1 through day 10. HC was administered s.c. once
every other day from day 1 through day 10. The incidence of paralysis
was recorded and mean paralysis time was calculated.

The mark [2] stands for this setting: 6.25 mg/kg i.p. once daily day 1 through day 10.
The mark [3] stands for this setting: 12.5 mg/kg i.p. once daily day 1 through day 10.
Where [4] appears, read: 25.0 mg/kg i.p. once daily day 1 through day 10.

In brackets after ≈: the same amount, converted by molar mass.

In general, IC50 refers to the midpoint of a concentration-inhibition curve. Low readings indicate greater potency, high ones weaker potency. Turning to `COc1ccc(OC)c(C(=O)C(C)=Cc2ccc(N(C)C)cc2)c1` [COMPOUND, 1-(2,5-dimethoxyphenyl)-3-[4-(dimethylamino)phenyl]-2-methyl-2-propen-1-one], the IC50 in the experiment on HeLa cells is 0.015 µg/mL (≈ 0.0461 µM). The “PARALYSIS TIME (Mean ± S.E.)” value in experiment [1] (setting [2]) was found to be 9.7 ± 0.36 days; in experiment [1] (setting [3]) it was 9.4 ± 0.26 days; in experiment [1] (setting [4]) it was 10.8 ± 0.54 days. Also, the “PERCENT INCIDENCE OF PARALYSIS” value amounted to 90% in experiment [1] (setting [2]), 80% in experiment [1] (setting [3]) and 40% in experiment [1] (setting [4]). The “number paralyzed/total number of animals” value in experiment [1] (setting [2]) is recorded as 9/10; in experiment [1] (setting [3]), 8/10; in experiment [1] (setting [4]) it was 7/18.
`C[C@]12CCC(=O)C=C1CC[C@@H]1[C@@H]2[C@@H](O)C[C@@]2(C)[C@H]1CC[C@]2(O)C(=O)CO` [HYDROCORTISONE, hydrocortisone, reference compound]: the “number paralyzed/total number of animals” value in experiment [1] (25.0 mg/kg s.c. once every other day day 1 through day 10) is 14/19.
